For data set [1], the system named is Candida albicans ATCC 262778. The data set is described as follows: In vitro antifungal activity (growth inhibition, turbidimetric, liquid Sabouraud medium). It counts as cell-based. The following applies: for IC50 (concentration inhibiting growth of fungi by 50%): 24 hours at 30° C., liquid Sabouraud medium. The protocol: The antifungal activity of compounds was determined following the standard for polyene macrolide procedure. The liquid Sabouraud medium was inoculated with 10^4 cells/ml of test organism Candida albicans ATCC 262778 and incubated for 24 hours at 30° C. with the tested antibiotic (serial dilutions). Amphotericin B was used as the reference. Compounds were dissolved in DMF and suitable amounts of the solutions were added to the medium. Turbidimetric method (660 nm) was applied to determine the degree of growth inhibition. The concentration of antibiotic at which the growth of fungi was inhibited by 50% was determined from the dose response curve. The obtained IC50 value characterized antifungal activity of the compound.

Data set [2] is described as follows: In vitro toxicity (haemolysis of human erythrocytes). It counts as cell-based. The following applies: human, erythrocytes, 30 minutes at 37° C., read-out: EH50 (concentration at which 50% of hemolysis occurred). Here is the method:
(§1) Toxicity of compounds in vitro against animal cells was determined using standard for polyene macrolides procedure, by the determination of the degree of haemolysis of human erythrocytes. Human erythrocytes isolated from fresh, citrated human blood were washed twice with cold saline. The cells were diluted 250 times with saline and equilibrated for 30 minutes at 37° C. Samples of erythrocytes were incubated with various concentrations of antibiotics (the base solution in DMF) for 30 minutes at 37° C. After centrifugation the lysis of erythrocytes was assessed by determination of the haemoglobin released to the solution. Optical density of the supernatant was measured at […]. The results were expressed by EH50 value, as concentration of antibiotic at which 50% of hemolysis occurred. The values of EH50 were read from a curve relating the degree of hemolysis with antibiotic dose.

Data set [3] is described as follows: Solubility. It counts as physicochemical.
Data set [4] has as its system human erythrocytes. Briefly: In vitro toxicity (haemolysis of human erythrocytes). It is filed as cell-based. The following applies: 30 minutes at 37° C. The protocol: as §1
Data set [5] can be described thus: In vivo toxicity, maximum tolerated dose (MTD). The following applies: mouse, in vivo, Balb/c mice. Here is the method:
(§2) In vivo toxicity was determined for methyl ester of N-methyl-N-D-fructosylamphotericin B L-aspartate as the maximum tolerated dose (MTD), and as the acute toxicity (LD50). To determine MTD dose the compound was dissolved in 5% solution of glucose, and administered intravenously and intraperitonealy to Balb/c mice in single and multiple doses.

The test system of data set [6] is Balb/c mice. Briefly: In vivo toxicity, maximum tolerated dose (MTD). The settings on record: intraperitoneal 100 mg/kg for 5 days, 20 days of observation. Here is the method:
as §2

The nature of data set [7]: Acute toxicity (LD50). The following applies: mouse, in vivo, iv.
Protocol: (§3) Various doses of the tested compound, and for comparison, amphotericin B in form of Fungizone, dissolved in 5% glucose were given intravenously to the animals. The administered volume of the solution was 0.5 ml. 0.5 ml of 5% solution of glucose was administered to mice as a control. Every dose of both preparations was administered to 5 mice. […] Next, the animals were killed, and some serum indexes were determined.
For data set [8], the system named is Swiss Webster female mice. The data set is described as follows: Serum indexes after acute toxicity study. It counts as in vivo. The following applies: in comparison with the control (5% glucose), after 7 days.
Protocol: as §3
Data set [9] deals with Candida albicans. The data set is described as follows: Chemotherapeutic efficacy, systemic murine candidose model. It counts as in vivo. The settings on record: 840 h, intravenous, twice a day, 5 days, female Swiss Webster mice.
Protocol: Candida albicans was grown overnight in Sabouraud dextrose broth at room temperature. The fungal cells were centrifuged, washed twice with 0.9% solution of sodium chloride, and suspended in physiological salt solution. Female Swiss Webster mice of 25 g weight, were injected intravenously with 10^5 cells of Candida in 0.2 ml of 0.9% sodium chloride solution. Initially, the infection was systemic, but by 2 to 3 days it was localized to the kidneys. Untreated animals usually died between 7 to 14 days post-infection. Three days post-infection, animals were treated intravenously, twice a day, for 5 consecutive days with a 5 to 6 hours interval. Preparation was administered as a solution in 5% glucose. […] After this time, the surviving animals were sacrificed, their kidneys were removed, homogenized in sterile water, and the homogenate was placed on Sabouraud dextrose agar, and the grown colonies of Candida were counted. […] The dose, called ED50, was calculated using a method given in J.Hyg.

The values that follow come from patent US5942495A, “Antibiotics” (BTG International Limited, priority 1997, dated 1999).

In brackets after ≈: the same amount, converted by molar mass. Read-outs that look alike come from different tables or passages of the source.

As for `COC(=O)[C@H]1[C@@H]2C[C@@H](O[C@@H]3O[C@H](C)[C@@H](O)[C@H](N(C)CC4(O)OC[C@@H](O)[C@@H](O)[C@@H]4O)[C@@H]3O)/C=C/C=C/C=C/C=C/C=C/C=C/C=C/[C@H](C)[C@@H](O)[C@@H](C)[C@H](C)OC(=O)C[C@H](O)C[C@H](O)CC[C@@H](O)[C@H](O)C[C@H](O)C[C@](O)(C[C@@H]1O)O2` (single isomer, unassigned) [Example I, N-methyl-N-D-fructosylamphotericin B methyl ester], the “IC50 (concentration inhibiting growth of fungi by 50%)” value in [1] was determined as 0.12 µg/mL. In addition, in [2], the HC50 at 0.5 h was over 350 µg/mL. The solubility in data set [3] (under conditions of the haemolysis experiment, read-out: solubility limit (insoluble above)) is at most 350 µg/mL.

Take `COC(=O)[C@H]1[C@@H]2C[C@@H](O[C@@H]3O[C@H](C)[C@@H](O)[C@H](N(C)CC4(O)OC[C@@H](O)[C@@H](O)[C@@H]4O)[C@@H]3O)/C=C/C=C/C=C/C=C/C=C/C=C/C=C/[C@H](C)[C@@H](O)[C@@H](C)[C@H](C)OC(=O)C[C@H](O)C[C@H](O)CC[C@@H](O)[C@H](O)C[C@H](O)C[C@](O)(C[C@@H]1O)O2` (single isomer, unassigned) [Example VIII, N-methyl-N-D-fructosylamphotericin B methyl ester]: the “IC50 (concentration inhibiting growth of fungi by 50%)” value in data set [1] came to 0.42 µg/mL. The “EH50 (concentration at which 50% of hemolysis occurred)” value in [4] (30 min) is listed as “above 200 μg/ml”.

Take `COC(=O)[C@H]1[C@@H]2C[C@@H](O[C@@H]3O[C@H](C)[C@@H](O)[C@H](N(C)CC4(O)OC[C@@H](O)[C@@H](O)[C@@H]4O)[C@@H]3O)/C=C/C=C/C=C/C=C/C=C/C=C/C=C/[C@H](C)[C@@H](O)[C@@H](C)[C@H](C)OC(=O)C[C@H](O)C[C@H](O)CC[C@@H](O)[C@H](O)C[C@H](O)C[C@](O)(C[C@@H]1O)O2` (stereo partly drawn) [Example X, methyl ester of N-methyl-N-D-fructosylamphotericin B L-aspartate]: the IC50 in data set [1] (ATCC262778, 24 h, read-out: IC50 (concentration inhibiting growth of fungi by 50%)) was 0.125 µg/mL (≈ 0.112 µM). In data set [4] (30 min), the “EH50 (concentration at which 50% of hemolysis occurred)” value was “above 350 μg/ml”. Moreover, the MTD in data set [5] (ip, intraperitoneal, for 5 days, read-out: maximum multiple tolerated dose) was over 100 mg/kg; in [5] (ip, intraperitoneal, single dose, in 5% glucose, read-out: maximum single tolerated dose (MTD)) it was over 200 mg/kg; in data set [5] (iv, single dose, in 5% glucose, read-out: maximum single tolerated dose (MTD)), 100 mg/kg. Besides, the toxic effects entry in data set [6] was “toxic effects were not observed”. Moreover, the LD50 at 168 h in [7] came to 400 mg/kg. For the same compound, the “level of aspartate aminotransferase” value in data set [8] is given as “No increased level”. In [8], the level of creatinine result is reported as “No increased level”. Besides, the ED50 worked out at 2.3 mg/kg in data set [9] (5 weeks observation, read-out: ED50 based on the survival) and 6 mg/kg in data set [9] (clearance of Candida from kidneys, read-out: ED50 based on the kidneys clearance). In [3] (DMF, DMSO, 5% aqueous glucose), the “solubility in N,N-dimethylformamide, dimethylsulphoxide and 5% water solution of glucose” value is on record as “soluble”. The solubility in water entry in data set [3] (water) is on record as “very well soluble in water”.

With `C[C@@H]1[C@H](O)[C@@H](C)/C=C/C=C/C=C/C=C/C=C/C=C/C=C/[C@H](O[C@@H]2O[C@H](C)[C@@H](O)[C@H](N)[C@@H]2O)C[C@@H]2O[C@](O)(C[C@@H](O)C[C@@H](O)[C@H](O)CC[C@@H](O)C[C@@H](O)CC(=O)O[C@H]1C)C[C@H](O)[C@H]2C(=O)O` [amphotericin B, reference compound], the HC50 at 0.5 h in [2] was determined as 1.5 µg/mL.

For “N-methyl-N-D-fructosylamphotericin B methyl ester [Example IX]”, the “IC50 (concentration inhibiting growth of fungi by 50%)” value in data set [1] stood at 6.0 µg/mL.

Take “N-methyl-N-D-fructosylamphotericin B methyl ester [Example VII]”: the “IC50 (concentration inhibiting growth of fungi by 50%)” value in data set [1] is 0.42 µg/mL.

As for “N-methyl-N-D-fructosylcandidin D methyl ester [Example V]”, the “IC50 (concentration inhibiting growth of fungi by 50%)” value in [1] amounted to 0.01 µg/mL. Also, the “EH50 (concentration at which 50% of hemolysis occurred)” value in [4] was “≈ 180 μg/ml”.

As for “N-methyl-N-D-fructosylcandidin methyl ester [Example II]”, the “IC50 (concentration inhibiting growth of fungi by 50%)” value in data set [1] was 0.75 µg/mL. The “EH50 (concentration at which 50% of hemolysis occurred)” value in data set [4] is recorded as “above 300 μg/ml”.

For the compound “N-methyl-N-D-fructosylnystatin methyl ester [Example III]”, in data set [1], the “IC50 (concentration inhibiting growth of fungi by 50%)” value came to 6.8 µg/mL. Further, the “EH50 (concentration at which 50% of hemolysis occurred)” value in data set [4] was “above 300 μg/ml”.

“N-methyl-N-D-fructosylvacidin methyl ester [Example IV]”: the “IC50 (concentration inhibiting growth of fungi by 50%)” value in data set [1] was found to be 0.01 µg/mL. For the same compound, the “EH50 (concentration at which 50% of hemolysis occurred)” value in data set [4] was found to be 170 µg/mL.

“N-methyl-N-fructosyltrychomycin methyl ester [Example VI]”: in data set [1], the “IC50 (concentration inhibiting growth of fungi by 50%)” value stood at 0.013 µg/mL. Also, in data set [4], the “EH50 (concentration at which 50% of hemolysis occurred)” value was “≈ 165 μg/ml”.

As a reminder, the solubility is how much of the substance goes into solution per volume. A word on the LD50: it is the dose expected to kill half of the subjects tested. A word on the ED50: it is the dose that gives a 50% effect, or the effect in half of the subjects.
